In patent US10160783B2, “Neuroactive 13, 17-substituted steroids as modulators for GABA type-A receptors” (priority 2013, dated 2018):
Like-named read-outs stand apart in the source and are kept apart here.

Assays:
[1] = target: T1, rat α1β2γ2L type GABAA receptors expressed in Xenopus laevis oocytes (Rattus norvegicus, UniProt P18508+P62813+P63138, INS375LLRMFSFK); test: Potentiation of GABA-mediated chloride currents and direct gating, oocyte electrophysiology; format: cell-based; settings: ± SEM, N ≥ 4; for oocyte electrophysiology 0.1 μM: ratio of currents measured in the presence/absence of added compound: 0.1 μM compound; for oocyte electrophysiology 0.1 μM: ratio of currents measured in the presence/absence of added compound / oocyte electrophysiology 1 μM: ratio of currents measured in the presence/absence of added compound / oocyte electrophysiology 10 μM: ratio of currents measured in the presence/absence of added compound: 2 μM GABA control response; for oocyte electrophysiology 1 μM: ratio of currents measured in the presence/absence of added compound: 1 μM compound; for oocyte electrophysiology 10 μM: ratio of currents measured in the presence/absence of added compound: 10 μM compound; for (gating) 10 μM: ratio of compound only current/2 μM GABA current: direct current gated by 10 μM compound in the absence of GABA
T1 construct: expressed in transfected cells; host or cells: Xenopus laevis oocytes
Procedure: The compounds of the present disclosure were evaluated for the ability to potentiate chloride currents mediated by 2 μM GABA at rat α1β2γ2L type GABAA receptors expressed in Xenopus laevis oocytes and the results are shown in Table 2.

Tadpole = Tadpole loss of righting reflex (LRR) and loss of swimming reflex (LSR); format: in vivo; settings: ± SEM
Procedure: Table 3 discloses the anesthetic effects of the compounds of the present disclosure. In particular, the anesthetic effect of the compounds of the present disclosure on Loss of Righting Reflex (LRR) and Loss of Swimming Reflex (LSR).
Methods used are known in the art (see Jiang, X., et al.). Error limits are calculated as standard error of the mean (N=10 or more animals at each of five or more different concentrations).

[2] = target: picrotoxin binding site on GABAA receptors; test: [35S]-TBPS displacement (inhibition of [35S]-TBPS binding); settings: non-competitive displacement of [35S]-TBPS; ± SEM, duplicate experiments in triplicate
Procedure: The IC50 values for non-competitive displacers of [^35S]-TBPS from the picrotoxin binding site on GABAA receptors are reported in Table 1.
Results presented are from duplicate experiments performed in triplicate. Error limits are calculated as standard error of the mean. Methods used are known in the art (see Jiang, X., et al., Neurosteroid analogues. 9. Conformationally constrained pregnanes: structure-activity studies of 13,24-cyclo-18,21-dinorcholane analogues of the GABA modulatory and anesthetic steroids (3α,5α)- and […]. J. Med. Chem., 46: 5334-48 (2003)—the contents of which are hereby incorporated by reference in their entirety).

[3] = loss of righting reflex, read-out: Tadpole LRR EC50
[4] = loss of swimming reflex, read-out: Tadpole LSR EC50

T1 sequence (P62813 28-455, stated change not applied): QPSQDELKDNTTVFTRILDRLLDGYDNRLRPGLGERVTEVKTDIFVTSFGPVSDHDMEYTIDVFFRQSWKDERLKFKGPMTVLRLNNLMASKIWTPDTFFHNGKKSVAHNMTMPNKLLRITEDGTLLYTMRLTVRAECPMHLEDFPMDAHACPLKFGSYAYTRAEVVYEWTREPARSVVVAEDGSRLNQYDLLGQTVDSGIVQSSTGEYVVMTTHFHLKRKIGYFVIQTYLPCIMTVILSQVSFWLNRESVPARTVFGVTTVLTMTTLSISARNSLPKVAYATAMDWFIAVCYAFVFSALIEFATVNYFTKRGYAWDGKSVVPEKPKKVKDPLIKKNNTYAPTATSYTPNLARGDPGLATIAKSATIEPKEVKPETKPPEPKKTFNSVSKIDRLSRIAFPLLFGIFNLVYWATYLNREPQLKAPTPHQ
T1 sequence (P63138 26-474, stated change not applied): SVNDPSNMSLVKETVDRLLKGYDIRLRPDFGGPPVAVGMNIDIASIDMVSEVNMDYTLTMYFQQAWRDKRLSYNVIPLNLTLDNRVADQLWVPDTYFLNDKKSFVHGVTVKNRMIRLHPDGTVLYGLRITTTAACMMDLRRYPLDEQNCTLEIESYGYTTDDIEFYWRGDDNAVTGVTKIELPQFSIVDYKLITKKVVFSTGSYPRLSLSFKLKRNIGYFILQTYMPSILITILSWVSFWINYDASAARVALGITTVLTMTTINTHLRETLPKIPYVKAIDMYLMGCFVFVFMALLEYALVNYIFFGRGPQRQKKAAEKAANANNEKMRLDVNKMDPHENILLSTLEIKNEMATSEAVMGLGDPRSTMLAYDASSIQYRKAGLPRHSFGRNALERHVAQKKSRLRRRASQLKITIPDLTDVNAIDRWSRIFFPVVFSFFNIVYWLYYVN
T1 sequence (P18508 with tags, fused parts or gaps INS375LLRMFSFK): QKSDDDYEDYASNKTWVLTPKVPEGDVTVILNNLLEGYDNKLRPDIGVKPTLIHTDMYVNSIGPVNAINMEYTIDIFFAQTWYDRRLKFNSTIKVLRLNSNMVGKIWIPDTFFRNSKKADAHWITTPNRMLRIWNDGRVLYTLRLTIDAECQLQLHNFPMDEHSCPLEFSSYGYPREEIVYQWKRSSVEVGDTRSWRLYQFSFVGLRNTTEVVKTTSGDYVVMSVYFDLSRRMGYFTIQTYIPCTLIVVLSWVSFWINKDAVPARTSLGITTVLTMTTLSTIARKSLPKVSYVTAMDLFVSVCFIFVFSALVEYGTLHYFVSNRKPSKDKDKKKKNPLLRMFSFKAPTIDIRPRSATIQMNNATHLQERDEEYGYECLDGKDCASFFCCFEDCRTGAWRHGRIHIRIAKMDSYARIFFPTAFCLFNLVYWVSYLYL

| SMILES | oocyte electrophysiology 0.1 μM: ratio of currents measured in the presence/absence of added compound [1] | oocyte electrophysiology 1 μM: ratio of currents measured in the presence/absence of added compound [1] | oocyte electrophysiology 10 μM: ratio of currents measured in the presence/absence of added compound [1] | (gating) 10 μM: ratio of compound only current/2 μM GABA current [1] | EC50 (Tadpole; [3]) | EC50 (Tadpole; [4]) | IC50 [2] | melting point | Tadpole LSR EC50 (μM) (Tadpole; loss of swimming reflex) |
| --- | --- | --- | --- | --- | --- | --- | --- | --- | --- |
| CC[C@H]1CC[C@H]2[C@@H]3CC[C@H]4C[C@H](O)CC[C@]4(C)[C@H]3CC[C@]12C(C)=O [XJ-100, 1-[(3α,5α)-3-Hydroxy-18-norpregnan-13-yl]ethanone] | 1.33 ± 0.20 | 5.01 ± 0.89 | 8.41 ± 0.66 | −0.06 ± 0.06 | 460 ± 160 nM | > 10000 nM | 276 ± 130 nM | 182 to 184 °C |  |
| C=C[C@]12CC[C@H]3[C@@H](CC[C@H]4C[C@H](O)CC[C@@]43C)[C@@H]1CC[C@@H]2C(C)=O [ZYC-75] |  |  |  |  | 670 ± 10 nM | 2640 ± 10 nM |  | 146 to 147 °C |  |
| C=C[C@H]1CC[C@H]2[C@@H]3CC[C@H]4C[C@H](O)CC[C@]4(C)[C@H]3CC[C@]12C(C)=O [XJ-99, 1-[(3α,5α)-3-Hydroxy-18-norpregn-20-en-13-yl]ethanone] | 1.73 ± 0.20 | 3.96 ± 0.99 | 4.37 ± 1.28 | 0.07 ± 0.02 | 50 nM | 140 nM | 43 ± 12 nM | 178 to 179.5 °C |  |
| C=C[C@H]1CC[C@H]2[C@@H]3CC[C@H]4C[C@H](O)CC[C@]4(C)[C@H]3[C@@H](OC)C[C@]12C(C)=O [KK-144, 1-[(3α,5α,11β)-3-Hydroxy-11-methoxy-18-norpregn-20-en-13-yl]ethanone] | 1.40 ± 0.11 | 5.38 ± 0.55 | 10.59 ± 1.31 | 0.18 ± 0.02 | 180 ± 10 nM | 550 ± 10 nM | 72 ± 16 nM | 127 to 129 °C |  |
| C=C[C@H]1CC[C@H]2[C@@H]3CC[C@H]4C[C@H](O)CC[C@]4(COC)[C@H]3CC[C@]12C(C)=O [KK-145, 1-[(3α,5α)-3-Hydroxy-19-methoxy-18-norpregn-20-en-13-yl]ethanone] | 1.75 ± 0.14 | 13.74 ± 3.71 | 35.57 ± 12.85 | 0.56 ± 0.07 | 140 ± 10 nM | 550 ± 10 nM | 53 ± 4 nM | 124 to 126 °C |  |
| C=C[C@]12CC[C@H]3[C@@H](CC[C@H]4C[C@H](O)CC[C@@]43C)[C@@H]1CC[C@@H]2[C@@H](C)O [ZYC-76, (3α,5α,20R)-13-Ethenyl-18-norpregnan-3,20-diol] | 1.00 ± 0.01 | 1.56 ± 0.13 | 7.28 ± 1.76 | 0.04 ± 0.02 | 742000 ± 202000 nM | 1740 ± 30 nM | 497 ± 59 nM | 193 to 195 °C |  |
| C=C[C@H]1CC[C@H]2[C@@H]3CC[C@H]4C[C@H](O)[C@@H](OC)C[C@]4(C)[C@H]3CC[C@]12C(C)=O [KK-140, 1-[(2β,3α,5α)-3-Hydroxy-2-Methoxy-18-norpregn-20-en-13-yl]ethanone] | 5.39 ± 2.76 | 11.90 ± 1.08 | 17.29 ± 2.10 | 0.27 ± 0.06 | 50 nM | 300 nM | 17 ± 3 nM | 155 to 157 °C |  |
| CC(=O)[C@]12CC[C@H]3[C@@H](CC[C@H]4C[C@H](O)CC[C@@]43C)[C@@H]1CC[C@@H]2[C@@H](C)O [ZYC-72, (3α,5α,20R)-13-Acetyl-18-norpregnane-3,20-diol] | 0.80 ± 0.08 | 1.30 ± 0.11 | 2.78 ± 0.37 | −0.03 ± 0.11 | 3060 nM | > 10000 nM | 978 ± 618 nM | 159 to 161 °C |  |
| CC(=O)[C@]12CC[C@H]3[C@@H](CC[C@H]4C[C@H](O)CC[C@@]43C)[C@@H]1CC[C@@H]2CCl [ZYC-74, 1-[(3α,5α,17β)-17-Chloromethy-3-hydroxy-18-norandrostan-13-yl]ethanone] | 1.06 ± 0.04 | 1.98 ± 0.21 | 9.38 ± 1.71 | 0.03 ± 0.01 | 3330 ± 1410 nM | 5480 ± 200 nM | 415 ± 83 nM | 161 to 162 °C |  |
| CC(=O)[C@]12CC[C@H]3[C@@H](CC[C@H]4C[C@H](O)CC[C@@]43C)[C@@H]1CC[C@@H]2CO [ZYC-73, 1-[(3α,5α,17β)-3-Hydroxy-17-hydroxymethyl-18-norandrostan-13-yl]ethanone] | 1.07 ± 0.15 | 1.42 ± 0.16 | 6.16 ± 0.71 |  | > 10000 nM |  | 1460 nM | 166 to 168 °C | None |
| C=C[C@H]1CC[C@H]2[C@@H]3C[C@@H](OC)[C@H]4C[C@H](O)CC[C@]4(C)[C@H]3CC[C@]12C(C)=O [KK-143, 1-[(3α,5α,6β)-3-Hydroxy-6-methoxy-18-norpregn-20-en-13-yl]ethanone] | 1.23 ± 0.06 | 2.93 ± 0.30 | 8.43 ± 0.69 | 0.07 ± 0.02 | 610 ± 60 nM | 1730 ± 30 nM | 270 ± 19 nM | 158 to 160 °C |  |
| CC(=O)[C@H]1CC[C@H]2[C@@H]3CC[C@H]4C[C@H](O)CC[C@]4(C)[C@H]3CC[C@]12C(C)=O [ZYC-71, (3α,5α)-13-Acetyl-3-hydroxy-18-norpregnan-20-one] | 1.82 ± 0.03 | 9.31 ± 0.46 | 19.44 ± 1.69 | 0.22 ± 0.01 | 1730 ± 10 nM | 5480 ± 150 nM | 82 ± 7 nM | 180 to 181 °C |  |
